Data as given in ChEMBL document CHEMBL4152252, “Fluorine walk: The impact of fluorine in quinolone amides on their activity against African sleeping sickness” (Eur J Med Chem, 2018).

Columns and labels:
[1] = Solubility of the compound in RPMI-1640 medium; format: physicochemical
[2] = Octanol/water partition co-efficient, log P of the compound by HPLC based method; format: physicochemical
[3] = Stability in rat liver cytosol assessed as compound turnover per mg protein; format: ADME, subcellular
[4] = Cytotoxicity against mouse J774.1 cells after 24 hrs by Alamar blue assay; format: cell-based
[5] = Selectivity index, ratio of CC50 for mouse J774.1 cells to IC50 for trypomastigote forms of Trypanosoma brucei brucei TC 221 assessed as parasite growth inhibition after 48 hrs; format: toxicity; conditions: read-out: Ratio CC50/IC50
[6] = Drug metabolism in rat liver cytosol assessed as CYP450-mediated 1-butyl-3-carboxy-5-fluoro-7-morpholino-4-oxo-1,4-dihydroquinolinium formation at 100 uM using NADPH/H+ as co-factor after 30 to 90 mins by LC/MSD iom trap method; format: ADME, subcellular
[7] = Half life in rat liver cytosol; format: ADME, subcellular
[8] = Drug metabolism in rat liver microsomes assessed as CYP450-mediated 5-fluoro-3-(4-fluorobenzylcarbamoyl)-7-morpholino-4-oxo-1,4-dihydroquinolinium formation at 100 uM using NADPH/H+ as co-factor after 30 to 90 mins by LC/MSD iom trap method; format: ADME
[9] = Drug metabolism in rat liver cytosol assessed as CYP450-mediated 5-fluoro-3-(4-fluorobenzylcarbamoyl)-1-methyl-7-morpholino-4-oxo-1,4-dihydroquinolinium formation at 100 uM using NADPH/H+ as co-factor after 30 to 90 mins by LC/MSD iom trap method; format: ADME, subcellular
[10] = tested on: Trypanosoma brucei brucei; assay: Antitrypanosomal activity against trypomastigote forms of Trypanosoma brucei brucei TC 221 assessed as parasite growth inhibition after 48 hrs by Alamar blue assay; format: functional, organism-based; conditions: TC 221, 48 h
[11] = tested on: Trypanosoma brucei brucei; assay: Antitrypanosomal activity against trypomastigote forms of Trypanosoma brucei brucei TC 221 assessed as parasite growth inhibition after 72 hrs by Alamar blue assay; format: functional, organism-based; conditions: TC 221, 72 h
[12] = Drug metabolism in rat liver microsomes assessed as CYP450-mediated 1-butyl-3-carboxy-5-fluoro-7-morpholino-4-oxo-1,4-dihydroquinolinium formation at 100 uM using NADPH/H+ as co-factor after 30 to 90 mins by LC/MSD iom trap method; format: ADME
[13] = Drug metabolism in rat liver cytosol assessed as CYP450-mediated 5-fluoro-3-(4-fluorobenzylcarbamoyl)-7-morpholino-4-oxo-1,4-dihydroquinolinium formation at 100 uM using NADPH/H+ as co-factor after 30 to 90 mins by LC/MSD iom trap method; format: ADME, subcellular
[14] = Drug metabolism in rat liver microsomes assessed as CYP450-mediated 5-fluoro-3-(4-fluorobenzylcarbamoyl)-1-(3-hydroxybutyl)-7-morpholino-4-oxo-1,4-dihydroquinolinium formation at 100 uM using NADPH/H+ as co-factor after 30 to 90 mins by LC/MSD iom trap method; format: ADME
[15] = Drug metabolism in rat liver cytosol assessed as CYP450-mediated 5-fluoro-3-(4-fluorobenzylcarbamoyl)-1-(3-hydroxybutyl)-7-morpholino-4-oxo-1,4-dihydroquinolinium formation at 100 uM using NADPH/H+ as co-factor after 30 to 90 mins by LC/MSD iom trap method; format: ADME, subcellular
[16] = Drug metabolism in rat liver microsomes assessed as CYP450-mediated 5-fluoro-3-(4-fluorobenzylcarbamoyl)-1-methyl-7-morpholino-4-oxo-1,4-dihydroquinolinium formation at 100 uM using NADPH/H+ as co-factor after 30 to 90 mins by LC/MSD iom trap method; format: ADME
[17] = Drug metabolism in rat liver cytosol assessed as CYP450-mediated 6-fluoro-3-(4-fluorobenzylcarbamoyl)-1-methyl-7-morpholino-4-oxo-1,4-dihydroquinolinium formation at 100 uM using NADPH/H+ as co-factor after 30 to 90 mins by LC/MSD iom trap method; format: ADME, subcellular
[18] = Drug metabolism in rat liver cytosol assessed as CYP450-mediated 1-butyl-3-carboxy-6-fluoro-7-morpholino-4-oxo-1,4-dihydroquinolinium formation at 100 uM using NADPH/H+ as co-factor after 30 to 90 mins by LC/MSD iom trap method; format: ADME, subcellular
[19] = Drug metabolism in rat liver microsomes assessed as CYP450-mediated 6-fluoro-3-(4-fluorobenzylcarbamoyl)-7-morpholino-4-oxo-1,4-dihydroquinolinium formation at 100 uM using NADPH/H+ as co-factor after 30 to 90 mins by LC/MSD iom trap method; format: ADME
[20] = Drug metabolism in rat liver cytosol assessed as CYP450-mediated 6-fluoro-3-(4-fluorobenzylcarbamoyl)-7-morpholino-4-oxo-1,4-dihydroquinolinium formation at 100 uM using NADPH/H+ as co-factor after 30 to 90 mins by LC/MSD iom trap method; format: ADME, subcellular
[21] = Drug metabolism in rat liver cytosol assessed as CYP450-mediated 6-fluoro-3-(4-fluorobenzylcarbamoyl)-1-(3-hydroxybutyl)-7-morpholino-4-oxo-1,4-dihydroquinolinium formation at 100 uM using NADPH/H+ as co-factor after 30 to 90 mins by LC/MSD iom trap method; format: ADME, subcellular
[22] = Drug metabolism in rat liver microsomes assessed as CYP450-mediated 1-butyl-3-carboxy-6-fluoro-7-morpholino-4-oxo-1,4-dihydroquinolinium formation at 100 uM using NADPH/H+ as co-factor after 30 to 90 mins by LC/MSD iom trap method; format: ADME
[23] = Drug metabolism in rat liver microsomes assessed as CYP450-mediated 6-fluoro-3-(4-fluorobenzylcarbamoyl)-1-(3-hydroxybutyl)-7-morpholino-4-oxo-1,4-dihydroquinolinium formation at 100 uM using NADPH/H+ as co-factor after 30 to 90 mins by LC/MSD iom trap method; format: ADME
[24] = Drug metabolism in rat liver microsomes assessed as CYP450-mediated 6-fluoro-3-(4-fluorobenzylcarbamoyl)-1-methyl-7-morpholino-4-oxo-1,4-dihydroquinolinium formation at 100 uM using NADPH/H+ as co-factor after 30 to 90 mins by LC/MSD iom trap method; format: ADME

Q: Which results are given for `CCCCn1cc(C(=O)NCc2ccc(F)cc2)c(=O)c2c(F)cc(N3CCOCC3)cc21`?
A: solubility [1]: Insoluble; logP [2]: 3.41; Drug metabolism [3]: 3.89 pmol/min/mg protein; CC50 at 24 h [4]: > 25 µM; selectivity ratio at 48 h [5]: > 1250; Drug metabolism [6]: Metabolite_Detected; half-life [7]: 7.7 h; Drug metabolism [8]: Metabolite_Detected; Drug metabolism [9]: Metabolite_Detected; IC50 [10]: 0.02 µM; IC50 [11]: 0.02 µM; Drug metabolism [12]: Metabolite_Detected; Drug metabolism [13]: Metabolite_Detected; Drug metabolism [14]: Metabolite_Detected; Drug metabolism [15]: Metabolite_Detected; Drug metabolism [16]: Metabolite_Detected

Q: For `CCCCn1cc(C(=O)NCc2ccc(F)cc2)c(=O)c2cc(F)c(N3CCOCC3)cc21`, which Drug metabolism [17] is on record?
A: Its Drug metabolism is “Metabolite_Detected”.

Q: And the Drug metabolism [18]?
A: The Drug metabolism was “Metabolite_Detected”.

Q: What about the solubility [1] of the same compound?
A: Its solubility is “Insoluble”.

Q: And the Drug metabolism [19]?
A: The Drug metabolism was “Metabolite_Detected”.

Q: And the logP [2]?
A: The logP was 4.13.

Q: What about the CC50 at 24 h [4] of the same compound?
A: The CC50 at 24 h was > 20 µM.

Q: What about the selectivity ratio at 48 h [5] of the same compound?
A: The selectivity ratio at 48 h was > 400.

Q: And the Drug metabolism [20]?
A: The Drug metabolism was “Metabolite_Detected”.

Q: What about the half-life [7] of the same compound?
A: The half-life was 6.4 h.

Q: And the Drug metabolism [21]?
A: The Drug metabolism was “Metabolite_Detected”.

Q: And the Drug metabolism [22]?
A: The Drug metabolism was “Metabolite_Detected”.

Q: What about the Drug metabolism [23] of the same compound?
A: Its Drug metabolism is “Metabolite_Detected”.

Q: What about the IC50 [10] of the same compound?
A: Its IC50 is 0.05 µM.

Q: What about the IC50 [11] of the same compound?
A: Its IC50 is 0.09 µM.

Q: What about the Drug metabolism [24] of the same compound?
A: The Drug metabolism was “Metabolite_Detected”.
